These results are taken from a melting point compilation (Tetko et al.; mined from patent text by program, amines drawn as free bases though some values may be those of a salt).

Bounds are passed on as bounds.

On to `CCOC(=O)CNC(=O)NCCCSc1nccc(NC(N)=NCC(F)(F)F)n1`, for which the melting point (in general, the temperature of the solid-liquid transition) lay in the range of 165 to 166 °C.
With `COc1cc(S(=O)(=O)Nc2ccccc2)c(OC)cc1NC(=O)[C@@](C)(O)C(F)(F)F`, the melting point lay in the range of 194 to 195 °C.
Regarding `CCOc1nc(NCc2ccco2)nc(Oc2cccc(C(F)(F)F)c2)n1`, the melting point is 97 to 99 °C.
For `O=C(O)CCCCCCCCC1=CC(O)CC1=O` (centres undefined), the melting point lay in the range of 58 to 66 °C.
As for `COc1ccc(C2CC(c3ccc(O)cc3)C2)cc1` (centres undefined), the melting point is 96 to 110 °C.
As for `C=C(C)C(=O)OCCOC(=O)c1ccc2c(c1)C(=O)N(OS(=O)(=O)c1ccc(C)cc1)C2=O`, the figure is 113 °C; as for `CCC(=O)NCC=C1CCc2ccc3nc(CCCCc4ccccc4)oc3c21`, 111 to 113 °C; as for `CC(=O)OC[C@H]1OC(O)(Cl)[C@H](NC(=O)c2cccnc2)[C@@H](OC(C)=O)[C@@H]1OC(C)=O` (some centres undefined), 175 to 176 °C.
Next, `CCCCCCS(=O)(=O)c1ccccc1C1NC(=O)NC1=O` (centres undefined): 188 to 189 °C.
As for `Cc1nnc(Sc2nc3cc(C(=O)c4ccccc4)ccc3nc2C(F)(F)F)s1`, the figure is 176 to 179 °C; as for `O=c1ccoc2c3c(ccc12)OCC(CO)O3` (centres undefined), 125 °C.
For the compound `CCOc1ccc2c(c1)n(C1CCCCC1)c(=O)n2S(=O)(=O)c1ccc(C(=O)OCc2ccccc2)cc1OC`, the melting point is 131 °C.
For the compound `COc1cc(Cl)cc(Cl)c1C(=O)NC(C)(C)CO`, the melting point lay within 131 to 132 °C.
In the case of `CCOC(=O)c1c(-c2ccc(F)cc2)c2ccsc2c(=O)n1C`, the melting point was in the range of 145 to 147 °C.
On to `CS(=O)(=O)c1ccc(-c2cnn(C3CCC3)c(=O)c2-c2ccc(F)cc2)cc1`, for which the melting point fell in the range of 202 to 203 °C.
For the compound `O=C1CN(c2cc(Oc3ccccc3)ccc2O)S(=O)(=O)N1`, the melting point was in the range of 153 to 157 °C.
Take `Cn1c(=O)cnn(-c2cc(O)c(Cl)cc2Cl)c1=O`: the melting point lay within 199 to 201 °C.
`Nc1ncc(-c2ccc(C(F)(F)F)cc2)cc1C(F)(F)F` came in with a melting point of 168 °C.
`CCC1c2cccn2-c2cc(O)c(F)cc2N1S(=O)(=O)c1ccc(O)c(C)c1` (centres undefined): the melting point was 194 to 196 °C.
For `COc1cccc2nc(C)n(C3CCC(=O)NC3=O)c(=O)c12` (centres undefined), the melting point was 274 to 276 °C.
`CN1CCN(c2cccc3c2C[C@H](NC(=O)c2ccc(N4CCCCC4)cc2)CC3)CC1` showed a melting point of 196 to 198 °C.
Next, `Cc1c(NC(=O)c2ccc(-c3ccc(Cl)cc3)cc2F)ccc2cc(CN3CCCC3)cnc12`: 181 to 183 °C; `CC(C#Cc1ccc(Oc2ccc(Cc3ccc(F)cc3)cc2)o1)N(O)C(N)=O` (centres undefined): 145 to 147 °C.
As for `CCc1ccc2c(OCC(=O)O)c(C(C)C)nn2c1`, the figure is 118 to 119 °C; as for `NNc1nc2cc(Cl)c(Cl)cc2nc1Cl`, less than 260 °C; as for `NCCc1ccc(C(=O)CCC(=O)O)cc1`, 234 to 235 °C.
In the case of `COc1cccc(-c2ccc3c(c2)NC(=O)OC3(C)C)c1`, the melting point fell in the range of 167 to 168 °C.
In turn, `CCOC(=O)c1cnc2n(c1=O)CCc1ccccc1-2` had a melting point of 117 to 125 °C.
The compound `C(=Cc1ccc(C=Cc2ccccc2)c2ccccc12)c1ccccc1` displayed a melting point of 189 °C.
In turn, `Cc1cc(-c2nnc3c4ccccc4c(OCc4nc[nH]n4)nn23)no1` showed a melting point of 260 to 262 °C.
Take `COc1ccc(-c2sc3c(c2C)c(=O)c(COC(C)=O)cn3Cc2ccccc2OC)cc1`: the melting point was 158 to 159 °C.
The compound `Nc1ccc2oc3ccc(OC(F)F)c(C(=O)Nc4c(Cl)cncc4Cl)c3c2c1` yielded a melting point greater than 270 °C.
As for `CNC(=O)OC1CCN(C(=O)Oc2ccc(Oc3ccccc3)cc2)CC1`, the figure is 117 to 119 °C.
On to `Cc1cc(-c2nnc3cc(C(C)(C)C)c(OCc4ncn(C)n4)nn23)no1`, for which the melting point was in the range of 221 to 223 °C.
Take `O=C1CCCc2cc(F)cc(Sc3ccccc3)c21`: the melting point is 112 to 113 °C.
As for `CCCC(NS(=O)(=O)c1ccc(Cl)cc1)C(=O)NN` (centres undefined), the melting point stood at 120 °C.
Consider `CC(C)(CC(O)(Cn1ccc2c1CCCC2=O)C(F)(F)F)c1cc(S(C)(=O)=O)cc2c1OCC2` (centres undefined), for which the melting point was in the range of 207 to 208 °C.
Turning to `COc1cc(C)c2ccc(=O)[nH]c2n1`, the melting point lay in the range of 214 to 216 °C.
`CS(=O)(=O)Nc1ccc(SCCCCl)cc1` came in with a melting point of 61 to 63 °C.
In turn, `N#Cc1cc(F)c(Cl)c(Br)c1Cl` showed a melting point of 110 to 112 °C.
For `CN(C)C(=O)n1nc(C(C)(C)C)cc1S(C)=O` (centres undefined), the melting point fell in the range of 95 to 96 °C.
Turning to `O=C(O)COc1ccc(CCc2nc(-c3ccccc3)c(-c3ccccc3)o2)cc1`, the melting point lay within 147 to 149 °C.
The compound `COC(=O)c1ccc(-c2nc3cc(Cl)c(Cl)cc3[nH]2)cc1` had a melting point of 240 to 250 °C.
As for `COc1cc2c(cc1OC)CN(CCCCc1ccc(NC(=O)c3cccc4c(=O)cc(-c5ccccc5)oc34)cc1)CC2`, the figure is 117 to 120 °C.
Next, `COc1cc(C(O)c2cnc(Cl)nc2Cl)cc(OC)c1OC` (centres undefined): 115 to 118 °C; `CCc1ccc2c(c1)CCC21CCc2cc(CC)ccc21`: 236 to 239 °C.
Compound `NC(=O)CN1C(=O)[C@@H](NC(=O)c2cc3ccccc3[nH]2)[C@H](c2ccccc2)Sc2ccccc21` (relative stereo) registered a melting point of 222 to 225 °C.
Turning to `Cc1ccccc1-c1cccc(C=NNC(=S)NN2CCCC2)n1`, the melting point was in the range of 172 to 173 °C.
Next, `O=C(O)C=Cc1ccc(OCCC(c2ccccc2)(c2ccccc2)c2ccccc2)cc1`: 207 to 209 °C.
Turning to `Nc1ccc(C2=NNC(c3ccccn3)=NN2)nc1`, the melting point lay in the range of 158 to 160 °C.
In turn, `CC(=O)NC(Cc1c[nH]c2ccccc12)C(=O)CCc1cc(C(F)(F)F)cc(C(F)(F)F)c1` (centres undefined) displayed a melting point of 50 to 53 °C.
In the case of `CS(=O)(=O)Nc1cccc(Nc2nc(NC3CN4CCC3CC4)c3nc[nH]c3n2)c1` (centres undefined), the melting point lay within 200 to 204 °C.
The compound `CC(C)CC(CS)C(=O)NCCCCCCCC(=O)N[C@@H](CCCNC(=N)N)C(=O)O` (some centres undefined) registered a melting point of 102 to 130 °C.
In turn, `Cc1cc(CCCCCCCOc2ccc(C(=O)OC(C)(C)C)cc2)on1` came in with a melting point of 76 °C.
Turning to `CCON=C(CC)C1=C(O)CC(c2c(C)c(C)c3c(c2Cl)CC(C)(CC)C3)CC1=O` (centres undefined), the melting point was 93 to 94 °C.
On to `CS(=O)(=O)Nc1ccc(NC(=O)c2c[nH]c(=S)n2C2CCc3c(F)cc(F)cc3C2)cc1` (centres undefined), for which the melting point was 225 to 230 °C.
`CN1CCN(C2=Nc3ccccc3-n3ccc4cc(Cl)cc2c43)CC1` gave a melting point of 170 to 172 °C.
Consider `CC(=O)/C=C(\C)c1ccc(C2CCCCC2)c(Br)c1`, for which the melting point is 52 to 53 °C.
On to `CCOC(=O)c1c(C(F)F)nc(C(F)(F)F)c(C(=O)OCC)c1-c1ccncc1`, for which the melting point lay within 43 to 45 °C.
The compound `CCc1noc(-c2cn(-c3cc(OC)ccc3Cl)cn2)n1` yielded a melting point of 67 to 69 °C.
With `CC=Cc1c(C(C)C)nc(C(C)C)c(CO)c1-c1ccc(F)cc1`, the melting point fell in the range of 46 to 47 °C.
As to `NC(Cc1cccc(C(F)(F)F)c1)=NO`, the melting point was 91 to 92 °C.
Next, `COc1cc(C(=O)O)ccc1OCCCCCOc1ccc(C#N)cc1`: 159 to 161 °C.
The compound `O=C(O)CCC1c2ccccc2-c2ccccc21` showed a melting point of 216 to 217 °C.
Take `Cc1ccc(OC(=O)CCCC(=O)OOC(C)(C)C)cc1`: the melting point was 50 to 55 °C.
The compound `BrCc1cccc2c(-c3ccccc3)c(Br)oc12` had a melting point of 135 to 138 °C.
`COc1cc(C(F)(F)F)nn1-c1ccc(NC(=O)c2ccccc2F)cc1` registered a melting point of 167 to 168 °C.
The compound `CCOC(=O)C1=C(C)Nc2ncnc(OC(C)C)c2C1c1ccccc1` (centres undefined) displayed a melting point of 201 to 202 °C.
`CCOC(=O)c1c(Nc2ccncc2)c2ccc(Cl)cc2n1C` came in with a melting point of 154 to 155 °C.
Next, `Cc1cccc(C=NN2C(=O)CN(C(c3ccccc3)c3ccccc3)CC2=O)n1`: 161 to 163 °C.
In turn, `CS(=O)(=O)Nc1cc(C(=O)O)c2c(c1)C(C(=O)O)CCN2` (centres undefined) had a melting point of 188 to 190 °C.
As for `CCCc1cc(CCCOc2c(C)cc(-c3nc(C)no3)cc2C)on1`, the figure is 35 to 37 °C.
Next, `COc1ccc(CNC(=O)c2ccccc2)cc1`: 98 to 99 °C; `CCCCCc1ccc(-c2ccc(CC#N)cc2)cc1`: 80 °C; `Cc1ccc(NC(=O)c2cccc(C(F)(F)F)c2)cc1-c1ccc2ncsc2c1`: 94 to 96 °C.
For `COC(=O)CCCCCCCCCCCCc1ccccc1`, the melting point lay within 30.5 to 31.5 °C.
As for `N#CCc1cccc(C(=O)c2ccc(Cl)cc2)c1`, the figure is 86 to 90 °C; as for `CCCc1ccc2c(c1)C=Cc1sc(C)nc1C2c1cn(C)c(=O)[nH]c1=S` (centres undefined), 235 °C; as for `CNC(=O)C1N=C(c2ccccc2)c2cc(Cl)ccc2NC1=O` (centres undefined), 294 °C.
With `C[Si](C)(C)c1[nH]c2ccccc2c1C1CC1`, the melting point fell in the range of 78 to 81 °C.
In turn, `CC(c1ccc(C(F)(F)F)cc1[N+](=O)[O-])[N+](=O)[O-]` (centres undefined) registered a melting point of 48 °C.
`CSC(C[C@H](NC(=O)[C@H](CC(C)C)NC(=O)OCc1ccccc1)C(C)=O)c1ccccc1` (some centres undefined): the melting point lay in the range of 119 to 120 °C.
In the case of `COc1ccc(CN[C@@H](C(=O)O)[C@@H](O)[C@H](Cc2ccccc2)NC(=O)OC(C)(C)C)cc1`, the melting point is 203 to 206 °C.
Consider `Cc1cccc(N(C)C(=O)NC2N=C(c3ccccc3F)c3ccccc3N(CC(=O)N3CC4CCC(CC4)C3)C2=O)c1` (racemic), for which the melting point was in the range of 207 to 212 °C.
Next, `Cc1cc(F)cc(-c2ccc3c(c2)C2(CCCCC2)C(=O)N3)c1`: 180 to 182 °C.
As for `CNc1cc(F)c(C#N)cc1F`, the figure is 160 to 163 °C; as for `COC1(OCCCCl)C=CC(C(=O)O)=CC1` (centres undefined), 157 to 159 °C; as for `CCOC(=O)c1cccnc1NC(=O)Cc1cccc(Oc2ccccc2)c1`, 90 to 91 °C.
Consider `COc1ccc(S(=O)(=O)Nc2cc(F)cc3c2Nc2ccc(O)cc2CO3)cc1`, for which the melting point was 201 to 210 °C.
